The test system of one series is hair papilla cells. Description: Hair papilla cell proliferation test (MTT method). As to conditions: concentration used 100 · mol/L; 2 days culture; DMEM with 1% FCS; medium free of hair growth components = 100. The format is cell-based. As to the method: (1) Using a proliferation medium PCGM: Papilla Cell Growth Medium (purchased from TOYOBO CO., LTD., TPGM-250), hair papilla cells were plated to a cell seeding density of 1.0×10^4 cells/well in a 96 well plate.
(2) After culturing at 37° C. in a 5% carbon dioxide gas (CO2) atmosphere for one day, the medium was removed, and the cells were washed with an evaluation medium used for cell proliferation tests, i.e., DMEM (Dulbecco's Modified Eagle's Medium) medium containing 1% FCS (fetal bovine serum). Then, various test components were dissolved in a similar evaluation medium and added to various concentrations (* mol/l).
(3) Subsequently, the cells were further cultured at 37° C. in a 5% carbon dioxide gas (CO2) atmosphere for 2 days, and the hair papilla cell proliferation rate was measured by the MTT method.
(§1) (4) The relative evaluation value was calculated based on the rate obtained using a medium free of various hair growth components as 100, and the value was taken as the proliferation rate.
A general note: Formazan colour is commonly taken as a measure of viable cells.

Series [1] concerns human epidermal keratinocytes. Description: Human epidermal keratinocyte proliferation test (MTT method, MCDB153 medium). The format is cell-based. As to conditions: concentration used 50 · mol/L, 2 days culture, medium free of hair growth components = 100. As to the method: (1) Using a serum-free proliferation medium HuMedia-KB2 (purchased from KURABO INDUSTRIES LTD., KK-2350S) added with a proliferation additive HuMedia-KG (purchased from KURABO INDUSTRIES LTD., KK-6150), human epidermal keratinocytes were plated to a cell seeding density of 2.0×10^4 cells/well in a 96 well plate.
(2) After culturing at 37° C. in a 5% carbon dioxide gas (CO2) atmosphere for one day, the medium was removed, and the cells were washed with an evaluation medium used for cell proliferation tests, i.e., MCDB153 medium. Then, various test components were dissolved in a similar evaluation medium and added to various concentrations (* mol/l).
(3) Subsequently, the cells were further cultured at 37° C. in a 5% carbon dioxide gas (CO2) atmosphere for 2 days, and the human epidermal keratinocyte proliferation rate was measured by the MTT method.
as §1

The nature of series [2]: Solubility of glutamyllysine powder in solvents. The format is physicochemical.

Turning to `Nc1ncnc2c1ncn2[C@@H]1O[C@H](CO)[C@@H](O)[C@H]1O` [adenosine], in the series on hair papilla cells, the “hair papilla cell proliferation rate (%)” value worked out at 99%. Further, in series [1], the “keratinocyte proliferation rate (%)” value is 118%.
As for `Nc1cc(N2CCCCC2)nc(N)[n+]1[O-]` [minoxidil], in the series with hair papilla cells, the “hair papilla cell proliferation rate (%)” value is reported as 113%. Further, the “keratinocyte proliferation rate (%)” value in series [1] is 117%.
`NC(CCCCNC(=O)CCC(N)C(=O)O)C(=O)O` (centres unmarked) [glutamyllysine, Epsilon-N-(gamma-glutamyl)lysine]: the “solubility in alkaline water, acidic water” value in series [2] (alkaline water, acidic water and the like) is given as “soluble”. Besides, the “solubility in organic solvents” value in series [2] (various organic solvents such as methanol, ethanol, acetone) is “hardly soluble or insoluble”. In addition, in the series with hair papilla cells, the “hair papilla cell proliferation rate (%)” value was 124%. Moreover, the “keratinocyte proliferation rate (%)” value in series [1] came out at 131%.

For the origin of these results see US20090131337A1, “HAIR GROWTH COMPOSITION” (AJINOMOTO CO. INC, priority 2006, published 2009).
